Experimental data: patent US11746103B2, “ALK-5 inhibitors and uses thereof” (Sumitomo Pharma Oncology, Inc., priority 2020, dated 2023)
“Also recorded” adds a separate entry of the source.

Columns and labels:
[1] = system: COV434 cells (wild-type FOXL2); assay: FOXL2 cell viability assay (Cell Titer Glo), COV434; assay type: cell-based; settings: Homo sapiens, 72 h, 3 days
Procedure: EX-11 was submitted to a cell viability assay in KGN and COV434 cell lines. KGN cells are derived from FOXL2^C134W AGCT of a person with a recurrent metastatic GCT. COV434 cells are derived from FOXL2WT JGCT of a person with a recurrent metastatic GCT. The cells were seeded in triplicate in 96 well culture plates and treated with nine, 3-fold dilutions of EX-11 or DMSO for 6 days (KGN) or 3 days (Cov434), which represented 3 cell doublings, respectively. Viability was assessed by Cell Titer Glo (Promega).

ES-2-luc cells [2] = assay: Cachexia model (ES-2 clear cell carcinoma); assay type: in vivo, mouse; settings: 150 mg/Kg BID
From the text: TGF-β1 signaling regulates ovarian cancer progression during initial carcinogenesis, tumor dissemination, and reestablishment of ascites through peritoneal cavity. Clear cell carcinoma is a specifically aggressive and therapy-resistant subtype of epithelial ovarian cancer. ES-2 clear cell carcinoma in vivo model was used to test efficacy of EX-11 in reducing ovarian tumor burden as determined by ascites fluid volume assessment. Because ALK5 signaling can regulate muscle growth and wasting, the efficacy of EX-11 in preventing ovarian cancer-induced cachexia was tested. Muscle health was assessed using histological evaluation of heart muscle tissue, and by comparison of gross weight of hind limb between the different treatment groups.
(§1) Sixteen-week-old female athymic nude mice were injected with two million ES-2-luc cells. […]
(§2) Mortality was recorded for animals found dead in the cage, and for the animals sacrificed based on humane end point based on main three criteria—loss of mobility and response, wasting with pronounced ascites fluid buildup, and palpable drop in body temperature (animals were assessed as cold to touch when handled in gloves).
(§3) On study day 22, the remaining surviving animals in the vehicle group were determined moribund, and the study was terminated based on humane end point criteria. […]

EMT6 tumors = assay: EMT6 syngeneic TNBC model
Procedure: The objective of this study was to evaluate preclinically the in vivo therapeutic efficacy of combining EX-11 with anti-PD-L1 and/or anti-PD-1 therapy for the treatment of EMT6 tumors orthotopically implanted in the mammary fat pad of female Balb/C mice.
Balb/C mice (aged 7-9 weeks) were inoculated orthotopically in the right mammary fat pad with EMT6 breast cancer cells (2.5×10^5) in 0.1 ml of PBS. Tumor measurements were performed via digital calipers. Once the mean tumor size reached approximately 85 mm^3 (day 11), 120 mice were randomized to 8 treatment arms (15 mice per arm).
The anti-PD-L1 inhibitor used in this study was a product of BioXcell (Cat #: BE0101, Clone #: 10F.9G2). The vehicle for the anti-PD-L1 inhibitor was PBS. The anti-PD-1 inhibitor used in this study was a product of BioXcell (Cat #: BE0146, Clone #: RMP1-14). The vehicle for the anti-PD-1 inhibitor was PBS. These inhibitors were injected intraperitoneally (i.p.), bi-weekly (BIW) for 3 weeks. The vehicle for EX-11 was NMP (10%)+20% Solutol in WFI (Water for Injection) (90%). The vehicle used for EX-11 was also used for the “Vehicle” arm of the study. EX-11 and the vehicle were delivered via oral gavage (p.o.), bi-daily (BID) for 21 days.
Body weights and tumor volumes were measured twice per week. Tumor volumes were measured in two dimensions using a caliper, and the volume was expressed in mm^3 using the formula: V=(L×W×W)/2, where V is tumor volume, L is tumor length (the longest tumor dimension) and W is tumor width (the longest tumor dimension perpendicular to L). Tumor Growth Inhibition (TGI) reported was TGI at the final study day, and is expressed as Mean % Δ Inhibition and was calculated using the following formula: [(C−C0)−(T−T0)/(C−C0)]*100%, where C refers to the tumor volume of the vehicle on the final study day, C0 to the tumor volume of the vehicle on the first day of dosing, T to the tumor volume of the treatment on a specific day of dosing and T0 to the tumor volume of the treatment group on the first day of dosing.
The first phase of the study was the dosing phase and was terminated at day 21, where 3 animals were sacrificed, and plasma and tumor samples were collected for biomarker analysis. The remaining 12 animals were monitored without dosing to determine mean survival.

ES-2-luc cells [3] = assay: ES-2 survival study (ovarian cancer xenograft); assay type: in vivo, mouse; settings: 150 mg/Kg twice a day, P.O.
From the text: Ovarian cancer is still associated with poor prognosis and remains among the leading causes of oncology-related deaths in females. High recurrence rates, resistance to chemotherapy and meager outcome highlight the need for improved therapies that stem from understanding the complex and multifactorial etiology of ovarian malignancies. TGF-01 signaling within tumor microenvironment regulates important steps in ovarian cancer progression such as epithelial to mesenchymal transition, dissemination, and metastasis. Inhibition of TGF-01 signaling pathway has shown a potential as a pharmaceutical target in ovarian malignancies. ES-2 ovarian cancer mouse xenograft model was used to test efficacy of EX-11 in ovarian cancer, as measured by improvement in survival.
as §1, §2, §3

[4] = Procedure: Female, athymic nude mice (aged 6-8 weeks) were randomized to one of 12 study arms (n=3 per arm) (Table 16) and weighed prior to dosing. Mice were dosed via oral gavage either once daily (QD), or bi-daily (BID) for five days. […] The vehicle for PF-06952229 (PF) was 10% DMSO, 40% PEG300, 5% tween-80, 45% saline. For the vehicle alone group in this study, the PF-06952229 vehicle was used. At the end of each day for 10 days, mice were weighed, and symptoms of toxicity (if present) were recorded. A qualitative determination of overall toxicity was made based on the number and severity of symptoms for each cohort. The safety margin was determined at the end of day 10 based on the following equation: (maximum tolerated dose)/(minimum effective dose).
[5] = system: antigen presentation pathway (APP); assay: Nanostring differential gene expression analyses of 4T1, EMT6 and S91 tumors; assay type: in vivo, mouse; settings: 4T1, EMT6, S91 tumors
From the text: The objective of this study was to determine the differential gene expression (DGE) patterns of 4T1, EMT6, and S91 tumors treated with EX-11+immune checkpoint inhibitor (ICI), EX-11 alone, ICI alone, or vehicle control. For the purpose of this study, ICI=anti-PD-1 or anti-PD-L1, as indicated.
For NanoString assays, tumors from three syngeneic models of cancer were used:
RNA was isolated from the frozen tumors of ≥3 mice per group using the Direct-Zol RNA Miniprep (Zymo Research). The treatment arms and number of mice/tumors used for downstream applications is outlined in Table 17 (R=Responder, NS=Non-responder).
Equal concentrations of RNA for each tumor within each group were pooled. Two-hundred ng of RNA per group was used for downstream applications. Three separate NanoString nCounter panels were used per protocol: 1) Fibrosis, 2) PanCancer Pathways, 3) Immunology. RCC raw data files were uploaded into nCounter 4.0 software where counts were normalized to housekeeping genes. Gene lists in each panel were combined into a single spreadsheet for downstream analyses. For genes found in […], mean count values were used. RStudio software was used to generate heat maps of DGE signatures within each study for each group. Ingenuity Pathway Analysis (IPA) was used to identify the dysregulated signaling pathways within each study for each group.

With Cc1cccc2c(Nc3ccnc(Nc4cccc(N5CCOCC5)c4)n3)cnnc12 [EX-11, N4-(8-methylcinnolin-4-yl)-N2-(3-morpholinophenyl)pyrimidine-2,4-diamine] the IC50 [1] was > 10 µM, the “ascites fluid volume compared to vehicle” value (ES-2-luc cells [2]) was “reduction in total fluid volume; also recorded: reduced ascites fluid volume” and the “whole hind limb weight compared to vehicle” value (ES-2-luc cells [2]) was “recorded higher; also recorded: improved hind limb weight retention”. The “tumor growth inhibition (TGI) compared to vehicle” value (EMT6 tumors; EX-11 at 75 mg/kg PO BID x 21 days) was “did not result in significant TGI”, the “tumor growth inhibition (TGI) compared to vehicle” value (EMT6 tumors; EX-11 at 150 mg/kg PO BID x 21 days) was 37% and the “Mean survival” value (EMT6 tumors; EX-11 at 150 mpk where given) was 25 days. For the same molecule, the tumor pliability (EMT6 tumors; all groups receiving EX-11 vs vehicle or checkpoint antibody single agent) was “substantially more pliable”, the “overall survival compared with vehicle-treated animals” value (ES-2-luc cells [3]) was “significantly increased; also recorded: significantly improved” and the minimum effective dose ([4]; BID, based on prior studies with EX-11) was 150 mg/kg. The “safety margin (maximum tolerated dose)/(minimum effective dose)” value ([4]; female, athymic nude, mouse, in vivo, 10 days) was ≥ 6.7 fold and the “antigen presentation pathway (APP) in tumors” value [5] was “upregulates the APP in tumors”.
